Results taken from publication PMC7760477 (Nutrients, 2020).
“Also recorded” adds a separate entry of the source.

Columns and labels:
[1] = Indirect comparison of AUCs of plasma (6S)-5-Methyl-THF between the 2019 and 2009 studies; details: female, human, in vivo, 451 µg
Procedure: (§1) We used individual data from the two studies to calculate the AUC0–8 h of plasma (6S)-5-Methyl-THF. […] We extrapolated plasma concentrations of (6S)-5-Methyl-THF for the missing time points in the corresponding studies by calculating the mean of the concentrations at the two neighboring time points (=before and after the missing concentrations). […] The incremental AUCs of plasma (6S)-5-Methyl-THF were calculated and were expressed as nmol/L*h.

[2] = 2009 pharmacokinetic study (Prinz-Langenohl et al.): plasma (6S)-5-Methyl-THF by LC-MS-MS after a single oral dose in women; details: AUC0-8h of plasma (6S)-5-Methyl-THF; individual ratios; mean (SD)
Procedure: Plasma concentrations of (6S)-5-Methyl-THF were selectively measured in both studies.
as §1
The data analyses were conducted using individual data from the 24 subjects in the present pharmacokinetic study and 21 women (3 women were excluded due to implausible results) from the study of Prinz-Langenohl et al. [13].

[3] = parameters: method as in Pietrzik et al., 2000 unpublished data; details: single equimolar dose; 23 women; mean (SD); ref Pietrzik et al., 2000 unpublished data; cited from earlier work
[4] = rated as unrelated to the study product
Procedure: On the kinetic days, a permanent venous catheter was inserted in the morning. Blood (8 mL) was collected under fasting conditions (at t0) into EDTA-K^+-containing tubes. […] The study product (1 capsule) was administered with 150 mL water by the study personnel to ensure compliance. […] On each kinetic day, 9 blood samples were collected between t0 and t8 h (8 mL each). The diary records including documentation of adverse events were returned during the last blood collection session after 8 h of the intake.

[5] = Pharmacokinetic study (present, 2019): plasma (6S)-5-Methyl-THF by UPLC-MS/MS after a single oral dose
Procedure: Both folate compounds were provided in odorless gelatin capsules of identical appearance (Apotheke Roter Ochsen AG, Schaffhausen, Switzerland). The label carried a random ID number and the kinetic day 1 and day 2.
The randomization was carried out on kinetic day 1 by means of consecutive numbering and was stratified by sex. On the kinetic days, a permanent venous catheter was inserted in the morning. Blood (8 mL) was collected under fasting conditions (at t0) into EDTA-K^+-containing tubes. […] The study product (1 capsule) was administered with 150 mL water by the study personnel to ensure compliance. A folate-free protein drink (Scandishake® Mix, Nutricia GmbH, Erlangen, Germany) was dissolved in water and served at 1 h, 3 h and 6 h after the product intake. The drink provided 430 kcal per serving. On each kinetic day, 9 blood samples were collected between t0 and t8 h (8 mL each). […]
Plasma total folate levels were measured on the kinetic days by using Cobas autoanalyser (Elecsys®, Roche, Mannheim, Germany) at the Department of Clinical Chemistry, Saarland University Hospital, Germany. […] All plasma samples collected from the same subject (18 samples on both study visits) were prepared and measured in the same run. […]
Incremental areas under the observed concentration-time curve above baseline were calculated applying the trapezoidal rule and were expressed as nmol/L*h.

[6] = Pharmacokinetic study (present, 2019): plasma unmetabolized folic acid by UPLC-MS/MS after a single oral dose; details: over 8 h; limit of detection 0.20 nmol/L
Procedure: (§2) The label carried a random ID number and the kinetic day 1 and day 2.
(§3) The randomization was carried out on kinetic day 1 by means of consecutive numbering and was stratified by sex. On the kinetic days, a permanent venous catheter was inserted in the morning. Blood (8 mL) was collected under fasting conditions (at t0) into EDTA-K^+-containing tubes. […] The study product (1 capsule) was administered with 150 mL water by the study personnel to ensure compliance. A folate-free protein drink (Scandishake® Mix, Nutricia GmbH, Erlangen, Germany) was dissolved in water and served at 1 h, 3 h and 6 h after the product intake. The drink provided 430 kcal per serving. On each kinetic day, 9 blood samples were collected between t0 and t8 h (8 mL each). The diary records including documentation of adverse events were returned during the last blood collection session after 8 h of the intake. After a washout period of 2 weeks (only two participants returned at 11 and 17 days) and during the second study visit (kinetic day 2), the other study compound was administered following exactly the same procedure.
(§4) Plasma total folate levels were measured on the kinetic days by using Cobas autoanalyser (Elecsys®, Roche, Mannheim, Germany) at the Department of Clinical Chemistry, Saarland University Hospital, Germany. The CV% of the total folate assay was <6%. All plasma samples collected from the same subject (18 samples on both study visits) were prepared and measured in the same run. All blood samples were primary aliquots frozen at −70 °C for no longer than 3 months.

clinical = details: both, human, in vivo
Procedure: as §2, §3, §4

concentration at 0.5 h (clinical) | concentration at 1 h (clinical) | Tmax (clinical; po) | SMILES | AUC(0-t) [1] | AUC Ratio: AUCs (6S)-5-Methyl-THF-Ca/ folic acid 2009 [2] | Incremental AUC0–8 h of plasma total folate [3] | Headaches reported on kinetic day 1 after intake [4] | AUC Ratio: AUCs of (6S)-5-Methyl-THF-Na/ AUC folic acid 2019 ([5]; AUC0-8h of plasma (6S)-5-Methyl-THF, individual ratios, mean (SD)) | Maximum concentrations of plasma (6S)-5-Methyl-THF reached earlier compared to folic acid ([5]; difference of Tmax versus folic acid) | Plasma unmetabolized folic acid levels after intake [6]
 |  |  | CN1c2c(nc(N)[nH]c2=O)NC[C@@H]1CNc1ccc(C(=O)N[C@@H](CCC(=O)O)C(=O)O)cc1 [(6S)-5-Methyl-THF-Ca, (6S)-5-Methyltetrahydrofolic acid] | 0.136 µM·h | 2.29 (0.76) | 85.0 (21.9) nmol/L*h |  |  |  | 
 |  |  | CN1c2c(nc(N)[nH]c2=O)NC[C@@H]1CNc1ccc(C(=O)N[C@@H](CCC(=O)O)C(=O)O)cc1 [(6S)-5-Methyl-THF-Na, (6S)-5-Methyltetrahydrofolic acid] |  |  |  | Three subjects reported headaches | 2.52 (1.02) | 60 min | below the limit of detection; also recorded: remained undetectable
2.5 nM | 4.7 nM | 30 to 60 min | Nc1nc2ncc(CNc3ccc(C(=O)N[C@@H](CCC(=O)O)C(=O)O)cc3)nc2c(=O)[nH]1 [folic acid, pteroylmonoglutamic acid] |  |  | 50.3 (20.1) nmol/L*h |  |  |  | 
